Measured values reported in article PMC12091851, “Replacing a Cereblon Ligand by a DDB1 and CUL4 Associated Factor 11 (DCAF11) Recruiter Converts a Selective Histone Deacetylase 6 PROTAC into a Pan‐Degrader” (Chemmedchem, 2025).

Target: T1, HDAC6 (Homo sapiens, UniProt Q9UBN7)
T1 sequence (Q9UBN7 1-1215): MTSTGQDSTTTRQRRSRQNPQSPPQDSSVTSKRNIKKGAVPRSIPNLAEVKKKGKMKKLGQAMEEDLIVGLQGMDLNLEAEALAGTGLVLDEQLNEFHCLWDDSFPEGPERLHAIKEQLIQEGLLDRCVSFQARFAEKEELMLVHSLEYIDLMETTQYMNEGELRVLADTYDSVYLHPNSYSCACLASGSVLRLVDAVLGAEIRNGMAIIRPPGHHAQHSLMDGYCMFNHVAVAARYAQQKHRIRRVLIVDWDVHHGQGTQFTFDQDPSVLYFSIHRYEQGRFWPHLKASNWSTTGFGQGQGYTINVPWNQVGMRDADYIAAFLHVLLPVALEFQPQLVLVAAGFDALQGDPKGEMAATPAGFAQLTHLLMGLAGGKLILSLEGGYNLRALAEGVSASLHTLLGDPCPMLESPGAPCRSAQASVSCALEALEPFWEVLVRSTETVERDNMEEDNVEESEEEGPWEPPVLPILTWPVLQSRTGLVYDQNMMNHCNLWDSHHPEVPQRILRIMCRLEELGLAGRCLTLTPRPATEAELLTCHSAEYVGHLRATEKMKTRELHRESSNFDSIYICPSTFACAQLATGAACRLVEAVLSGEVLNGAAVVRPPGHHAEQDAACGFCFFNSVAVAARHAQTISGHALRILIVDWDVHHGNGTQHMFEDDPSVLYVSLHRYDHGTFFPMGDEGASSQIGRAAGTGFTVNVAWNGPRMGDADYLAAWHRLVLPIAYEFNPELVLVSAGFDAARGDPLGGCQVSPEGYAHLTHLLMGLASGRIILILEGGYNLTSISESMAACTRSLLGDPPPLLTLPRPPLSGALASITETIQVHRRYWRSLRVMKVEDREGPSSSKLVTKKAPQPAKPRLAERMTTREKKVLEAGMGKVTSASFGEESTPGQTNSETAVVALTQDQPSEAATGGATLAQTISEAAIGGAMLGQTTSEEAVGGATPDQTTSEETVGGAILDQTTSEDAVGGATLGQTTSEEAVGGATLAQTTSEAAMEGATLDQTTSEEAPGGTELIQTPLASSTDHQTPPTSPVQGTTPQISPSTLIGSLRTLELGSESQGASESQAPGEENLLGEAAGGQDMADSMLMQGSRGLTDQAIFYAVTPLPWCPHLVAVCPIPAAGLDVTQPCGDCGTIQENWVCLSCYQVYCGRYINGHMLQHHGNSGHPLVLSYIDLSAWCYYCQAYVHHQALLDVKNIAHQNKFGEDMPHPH
Test: Immunoblot HDAC6 degradation in MM.1S cell lysates
Type: cell-based
Set-up: endogenous in cells; host or cells: MM.1S
Settings: MM1.S, MM.1S cells, 24 h, read-out: maximal degradation (Dmax) HDAC6
Experimental: Figure 6 Examination of HDAC isoform degradation. MM.1S cells were treated with the indicated compounds (10 μM) or vehicle (DMSO) for 24 h. HDAC1, 2, 4, and 6 levels were analyzed by immunoblotting. (A) Representative images from a total of n=3 biological replicates.
2.5. Aqueous Stability Assay
For stability testing in aqueous solution, a 10-fold concentrated DMSO solution of the respective compounds was diluted in DPBS to generate a 10 µM concentration (final DMSO content of 10%).
Samples of the aqueous solutions were taken after 0, 24, 48, and 72 h at room temperature and the amounts of the parental compound and potential fragments were monitored by HPLC gradient A (see 3.1 General Information). The peak area of the 0 h sample was used for normalization. All compounds were tested in duplicates and GraphPad Prim was used for evaluation and data visualization.
The cell lysis was performed as descripted in 3.2. Simple Western Immunoassay. Samples were denatured by Laemmli 2× Concentrate (Catalog# S3401-10VL, Sigma-Aldrich) for 5 min at 95 °C, and […]
Bio-Rad, Hercules, CA, USA). […]
6.1 (Bio-Rad) for quantification. […]
In vitro inhibitory activities against HDAC1, 2 , and 6 were measured using a previously published protocol.[3] In vitro inhibitory activities against HDAC4 were measured using a previously published protocol with slight modifications. […]

Compound	Dmax at 10 µM [%]
O=C(CCCCCCNC(=O)c1ccc(N(C(=O)CCl)C(C(=O)NCc2ccccc2)c2ccc(Cl)c(Cl)c2)cc1)NO (centres unmarked) [Compound 2]	26
O=C(CCCCCCNC(=O)c1ccc(NC(=O)CCCCCCCCCCCN(C(=O)CCl)C(C(=O)NCc2ccccc2)c2ccc(Cl)c(Cl)c2)cc1)NO (centres unmarked) [Compound 1j]	71 to 76
